Test [1] deals with human umbilical-vein endothelial cells (HUVEC). The test is described as follows: Tube Formation Assay (TFA) Test, HUVEC in collagen gel. Format: cell-based. The conditions noted are these: Homo sapiens, HUVEC, Tables 75-83; 0.32 mM sample solution; method as for Compounds 1 through 60; read-out: TFA Inhibition rate (%). As to the method: Furthermore, the sample liquids of compounds used in the CPA and CMA tests were prepared in the manner described below. Firstly, after weighing out each compound, a calculated amount of DMSO was added. After dissolving the compound in the DMSO, phosphate buffered physiological saline (PBS (-)) was added to bring the sample concentration to 1 mg/ml in PBS (-). The amount of DMSO used to dissolve the compounds was adjusted in advance to that the concentration of DMSO at that time was 5%. The resulting liquids were diluted 10-fold with 5% DMSO-PBS (-) solution to prepare sample solutions having a concentration of 0.1 mg/ml. In the TFA test, 320 μl of the prepared 1 mg/ml sample solutions were removed followed by addition of 680 μl of PBS (-) to prepare samples having a concentration of […]. Moreover, 100 μl of this solution was removed followed by addition of 900 μl of PBS (-) to dilute 10-fold and prepare samples having a concentration of 1 μg/ml. P [Cell Proliferation Assay (CPA) Test]
To begin with, 8 volumes of Type 1-A cell matrix (manufactured by Gibco Co.), 1 volume of 10×M119, and 1 volume of reconstituted buffer [200 mM HEPES, 0.05 N sodium hydroxide, 260 mM sodium bicarbonate] were slowly mixed under cooling with ice while avoiding bubbling to form a collagen gel. This collagen gel was distributed in a NUNC 24-well plate at 310 μl/well followed by allowing to stand undisturbed for 2 hours at 37° C. to solidify the gel.
Next, the 7th subculture of HUVEC (1×10^5 cells/ml) obtained from the first generation in the same manner as above were disseminated at 500 μl/well. The cells were cultured for 2 hours at 37° C. to allow the cells to make contact with the collagen. After then removing the medium by aspiration, 50 μl of sample solution were added followed by addition of 310 μl/well of freshly prepared collagen gel and culturing for 1 hour and 10 minutes at 37° C. to solidify the double-layer gel.
1 ml/well of M-199 medium containing 20% FCS, 30 ng /ml of b-FGF and 0.1 μM PMA were added to the wells followed by culturing for 20 hours at 37° C. in the presence of 5% CO2.
Measurement of the lengths of the formed tubes was performed using the public domain NIH Image with a computer.
Evaluation was performed by calculating the inhibition rate (%) of tube formation according to the following formula.
Inhibition rate (%)=100-((formed tube length in presence of sample-formed tube length in presence of control (-))×100/(formed tube length in presence of control (+)-formed tube length in presence of control (-)))
(§1) Samples were prepared using the present compounds of Compound No. I-60 through I-315. More specifically, 32 μl of a 20 mM sample solution dissolved in dimethylsulfoxide (DMSO) were removed and brought to a volume of 1 ml with phosphate-buffered saline (PBS) to prepare a sample solution having a concentration of 0.32 mM (containing 3.2% DMSO).
The testing method used for these compounds was the same as that used for the compounds of Compound No. 1 through 60 previously described.

For another test, the system named is HUFEC. The test is described as follows: Cell Migration Assay (CMA) Test, inhibitory rate with control (-) correction. The test is classed as cell-based, human. The conditions noted are these: Homo sapiens, 24 h, 125 μl of 0.32 mM sample solution in 4.0 ml medium, 80% or more = remarkable. As to the method: as §1
After disseminating the 7th subculture of […] obtained from the first generation at 4 ml/well (3.0×10^5 cells/well) in a collagen-coated 6-well plate (NUNC), the cells were cultured for 48 hours at 37° C. in the presence of 5% CO2. The cells reached nearly a completely confluent state as a result of this culturing.
A double-edged, disposable razor blade was divided into four sections, of which one of those sections was pinched between a pair of forceps. Using this piece of razor blade, the cell surface in the above confluent state was scraped off.
After washing the surface of the wells from which the cells had been scraped off with medium, 4.0 ml of fresh M199 (2+) medium were placed in the wells. 4.0 ml of M199 medium were added to the control (-) well.
125 μl of sample solution (0.32 mM, containing 3.2% dimethylsulfoxide) were added to the wells.
125 μl of PBS solution containing 3.2% dimethylsulfoxide were added to the control wells instead of sample. The cells were cultured for 24 hours at 37° C. in the presence of 5% CO2. After discarding the culture liquid, the cells were fixed for 30 minutes with methanol. Next, after […] the cells for 4 hours with Giemsa stain, the plates were washed with tap water and air dried.
Measurement of cell migration was performed by microscopically counting the number of cells that had newly migrated within the range of a 1 mm×1 mm block. […] The total number of cells counted in blocks 1 through 5 were then totaled to determine the overall total number of cells. Four fields were counted for each well.
Evaluation was performed determining the cell migration inhibitory rate (%) according to the following equation.
Inhibitory rate=100-((number of migrating cells to which sample was added-number of migrating cells of control (-))×100/(number of migrating cells of control (+)-number of migrating cells of control (-)))
If this inhibitory rate was 80% or more, cell migration was assessed as being remarkable.

Broadly, the inhibition is the drop in the measured response relative to a control, in per cent. Regarding `COC(=O)C1=CO[C@@H](OC(=O)NCc2cccc(F)c2)[C@@H]2C(C)=CC[C@H]12` [I-127], the inhibition at 320 µM (stock) (in test [1]; in the test with HUFEC) was 5.3% each time.
For the compound `COC(=O)C1=CO[C@@H](OC(=O)N(C)Cc2ccccc2)[C@H]2[C@@H]1CC[C@@H]2C` [I-184], the inhibition at 320 µM (stock) was determined as 7.4% in test [1] and 37.1% with HUFEC.
The corresponding values for `COC(=O)C1=CO[C@@H](OC(=O)N(C)CCc2ccc(OC)c(OC)c2)[C@@H]2C(C)=CC[C@H]12` [I-122] are 9.1% and 10.3%.
The matching figures for `CNC(=O)O[C@@H]1OC=C(C)[C@H]2CC[C@H](C)[C@@H]12` [I-278]: 20.2% and 125%.
The matching figures for `COC(=O)C1=CO[C@@H](OC(=O)NCc2ccccc2F)[C@H]2[C@@H]1CC[C@@H]2C` [I-231]: 5.9% and 9.7%.
Consider `CNC(=O)OCCN1CCN(C(=O)C2=COC[C@@H]3[C@H](C)CC[C@H]23)CC1` [I-306], for which the inhibition at 320 µM (stock) in test [1] was 22.6%; in the test on HUFEC, 25.1%.
On to `COC(=O)C1=CO[C@@H](OC(=O)Nc2ccc(SC)cc2)[C@@H]2C(C)=CC[C@H]12` [I-172], for which the inhibition at 320 µM (stock) is 8.7% in test [1] and 5.5% in the test on HUFEC.
The corresponding values for `COC(=O)C1=CO[C@@H](OC(=O)NCCc2c[nH]c3ccccc23)[C@H]2[C@@H]1CC[C@@H]2C` [I-220] are 7.4% and 25%.
Consider `COC(=O)C1=CO[C@@H](OC(=O)NCCCCl)[C@@H]2C(C)=CC[C@H]12` [I-142], for which the inhibition at 320 µM (stock) in test [1] is 3.7%; in the test with HUFEC, 9.8%.
Regarding `COC(=O)C1=CO[C@@H](OC(=O)NCCCN2CCOCC2)[C@H]2[C@@H]1CC[C@@H]2C` [I-229], the inhibition at 320 µM (stock) was determined as 3% in test [1] and 19.5% with HUFEC.
The corresponding values for `CCCCCCNC(=O)O[C@@H]1OC=C(C(=O)OC)[C@H]2CC[C@H](C)[C@@H]12` [I-175] are 7.5% and 19.5%.
For the compound `COC(=O)C1=CO[C@@H](OC(=O)N2CC=C(c3ccccc3)CC2)[C@@H]2C(C)=CC[C@H]12` [I-140], the inhibition at 320 µM (stock) in test [1] is 5.2%; with HUFEC it was 3.3%.
The corresponding values for `COC(=O)C1=CO[C@@H](OC(=O)Nc2ccc(Br)cc2)[C@@H]2C(C)=CC[C@H]12` [I-159] are 9.8% and 39.5%.
The matching figures for `COC(=O)C1=CO[C@@H](OC(=O)N2CCOCC2)[C@H]2[C@@H]1CC[C@@H]2C` [I-188]: 10.2% and 7.1%.
The corresponding values for `COC(=O)C1=CO[C@@H](OC(=O)NC2Cc3ccccc3C2)[C@H]2[C@@H]1CC[C@@H]2C` [I-247] are 9.7% and 23.4%.
With `COC(=O)C1=CO[C@@H](OC(=O)NCc2nc3ccccc3[nH]2)[C@@H]2C(C)=CC[C@H]12` [I-131], the inhibition at 320 µM (stock) worked out at 7.2% in test [1] and 19.5% with HUFEC.
The corresponding values for `COC(=O)C1=CO[C@@H](OC(=O)NCc2ccc(F)cc2)[C@@H]2C(C)=CC[C@H]12` [I-108] are 3% and 11.7%.
The corresponding values for `COC(=O)C1=CO[C@@H](OC(=O)Nc2ccc(F)cc2F)[C@H]2[C@@H]1CC[C@@H]2C` [I-256] are 4% and 5%.
The corresponding values for `COC(=O)C1=CO[C@@H](OC(=O)NCCCN(C)C)[C@@H]2C(C)=CC[C@H]12` [I-105] are 5.6% and 14.9%.
On to `C[C@@]12O[C@@H]1C[C@@H]1C(C(=O)O)=CO[C@@H](OC(=O)NCCCl)[C@@H]12` [I-69], for which the inhibition at 320 µM (stock) came out at 18% in test [1] and 18.8% with HUFEC.
The corresponding values for `COC(=O)C1=CO[C@@H](OC(=O)NCCCCCO)[C@@H]2C(C)=CC[C@H]12` [I-104] are 3.8% and 24.1%.
The corresponding values for `COC(=O)C1=CO[C@@H](OC(=O)NCCc2ccccc2F)[C@@H]2C(C)=CC[C@H]12` [I-82] are 5.5% and 13.7%.
The corresponding values for `COC(=O)C1=CO[C@@H](OC(=O)NCCc2ccc(O)cc2)[C@@H]2C(C)=CC[C@H]12` [I-100] are 23.3% and 21.9%.
As for `COC(=O)C1=CO[C@@H](OC(=O)NC(CO)CO)[C@@H]2C(C)=CC[C@H]12` [I-147], the values for the inhibition at 320 µM (stock) (in test [1]; with HUFEC) were 10.3% and 41%, respectively.
Regarding `COC(=O)C1=CO[C@@H](OC(=O)NCC2CC2)[C@H]2[C@@H]1CC[C@@H]2C` [I-241], the inhibition at 320 µM (stock) in test [1] is 5.1%; in the test with HUFEC, 12.6%.
The matching figures for `COC(=O)C1=CO[C@@H](OC(=O)NCC(C)C)[C@@H]2C(C)=CC[C@H]12` [I-87]: 8.6% and 8%.
For the compound `COC(=O)C1=CO[C@@H](OC(=O)N2CCC(Cc3ccccc3)CC2)[C@H]2[C@@H]1CC[C@@H]2C` [I-199], the inhibition at 320 µM (stock) in test [1] came out at 6%; in the test on HUFEC it was 25%.
The matching figures for `CCOC(=O)C1=CO[C@@H](OC(=O)NC)[C@@H]2C(C)=CC[C@H]12` [I-312]: 41.8% and 34.9%.
The corresponding values for `COC(=O)C1=CO[C@@H](OC(=O)NCc2ccc(OC(F)(F)F)cc2)[C@H]2[C@@H]1CC[C@@H]2C` [I-211] are 20.4% and 32.1%.
The corresponding values for `COC(=O)C1=CO[C@@H](OC(=O)NCCO)[C@@H]2C(C)=CC[C@H]12` [I-84] are 21.9% and 8.8%.
With `COC(=O)C1=CO[C@@H](OC(=O)N2CCN(c3ccccc3F)CC2)[C@@H]2C(C)=CC[C@H]12` [I-149], the inhibition at 320 µM (stock) in test [1] is 8.7%; with HUFEC, 7.5%.
The matching figures for `CCNC(=O)O[C@@H]1OC=C(C(=O)OC)[C@H]2CC[C@H](C)[C@@H]12` [I-262]: 8.8% and 6.3%.
The matching figures for `COC(=O)C1=CO[C@@H](OC(=O)NCCc2ccc(O)c(OC)c2)[C@H]2[C@@H]1CC[C@@H]2C` [I-248]: 5.7% and 2.2%.

The values above are taken from patent publication US6225478A, “Iridoid derivatives and neovascularization inhibitors containing the same as active ingredient” (Tsumura & Co., priority 1999, dated 2001).
